Reference: ChEMBL document CHEMBL5154649, “Design, synthesis, and characterization of novel aminoalcohol quinolines with strong in vitro antimalarial activity” (Eur J Med Chem, 2022)

What was measured:
[1] = system: Plasmodium falciparum; assay: Antiplasmodial activity against CQ-resistant Plasmodium falciparum W2 assessed as inhibition of parasite growth measured after 48 hrs by SYBR Green 1 dye based fluorescence assay; type: functional, organism-based; conditions: W2, 48 h
[2] = system: Plasmodium falciparum; assay: Selectivity index, ratio of IC50 for antiplasmodial activity against CQ-susceptible Plasmodium falciparum 3D7 to IC50 for antiplasmodial activity against CQ-resistant Plasmodium falciparum W2 by SYBR Green 1 dye based fluorescence assay; type: functional
[3] = system: Plasmodium falciparum; assay: Antiplasmodial activity against CQ-susceptible Plasmodium falciparum 3D7 assessed as inhibition of parasite growth measured after 48 hrs by SYBR Green 1 dye based fluorescence assay; type: functional, organism-based; conditions: 3D7, 48 h
[4] = system: Plasmodium falciparum; assay: Selectivity index, ratio of IC50 for antiplasmodial activity against CQ-susceptible Plasmodium falciparum 3D7 to IC50 for antiplasmodial activity CQ-resistant Plasmodium falciparum W2 by HRP2-ELISA; type: functional
[5] = system: Plasmodium falciparum; assay: Antiplasmodial activity CQ-resistant Plasmodium falciparum W2 infected in human erythrocytes assessed as inhibition of parasite growth measured after 72 hrs by HRP2-ELISA; type: functional, organism-based; conditions: W2, Erythrocyte
[6] = system: Plasmodium falciparum; assay: Antiplasmodial activity against CQ-susceptible Plasmodium falciparum 3D7 infected in human erythrocytes assessed as inhibition of parasite growth measured after 72 hrs by HRP2-ELISA; type: functional, organism-based; conditions: 3D7, Erythrocyte
[7] = Cytotoxicity against Chinese hamster CHO cells assessed as reduction in cell viability incubated for 24 hrs by MTT assay; type: toxicity, cell-based, Cricetulus griseus
[8] = Cytotoxicity against human THP-1 cells assessed as reduction in cell viability incubated for 72 hrs by MTT assay; type: toxicity, cell-based

SMILES	IC50 [1]	Ratio IC50 [2]	IC50 [3]	other results
OC[C@@H](NC[C@H](O)c1cc(C(F)(F)F)nc2c(C(F)(F)F)cccc12)c1ccccc1	15.9 nM	6.5	104 nM	
OCCN1CCN(C[C@H](O)c2cc(C(F)(F)F)nc3c(C(F)(F)F)cccc23)CC1			> 1000 nM	
O[C@@H](CN1CCN(CCN2CCN(C[C@H](O)c3cc(C(F)(F)F)nc4c(C(F)(F)F)cccc34)CC2)CC1)c1cc(C(F)(F)F)nc2c(C(F)(F)F)cccc12	> 1000 nM		147 nM	
O[C@H](CNCCN1CCN(C[C@@H](O)c2cc(C(F)(F)F)nc3c(C(F)(F)F)cccc23)CC1)c1cc(C(F)(F)F)nc2c(C(F)(F)F)cccc12	61.8 nM	5.8	361 nM	
CCNCc1cc(Nc2ccnc3cc(Cl)ccc23)ccc1O [DESETHYL AMODIAQUINE]				Ratio IC50 [4]: 0.25; IC50 [5]: 100 nM; IC50 [6]: 24.7 nM
OCCCC(CCCO)(CCCO)NC[C@H](O)c1cc(C(F)(F)F)nc2c(C(F)(F)F)cccc12			> 1000 nM	
O[C@@H](CN1CCN(C(c2ccccc2)c2ccccc2)CC1)c1cc(C(F)(F)F)nc2c(C(F)(F)F)cccc12	29.3 nM	1.8	53.6 nM	
C[C@H](CO)NC[C@H](O)c1cc(C(F)(F)F)nc2c(C(F)(F)F)cccc12	10.1 nM	4.8	48.2 nM	
OC[C@H](NC[C@@H](O)c1cc(C(F)(F)F)nc2c(C(F)(F)F)cccc12)c1ccccc1	10.1 nM	10.3	103 nM	
CC(C)(CO)NC[C@@H](O)c1cc(C(F)(F)F)nc2c(C(F)(F)F)cccc12	137 nM	1.9	254 nM	
OC[C@H](NC[C@H](O)c1cc(C(F)(F)F)nc2c(C(F)(F)F)cccc12)c1ccccc1	29.9 nM	4.55	136 nM	
COC[C@H](C)NC[C@H](O)c1cc(C(F)(F)F)nc2c(C(F)(F)F)cccc12	5.1 nM	2.8	14.4 nM	
NC[C@@H](O)c1cc(C(F)(F)F)nc2c(C(F)(F)F)cccc12	1460 nM			
OCCNC[C@@H](O)c1cc(C(F)(F)F)nc2c(C(F)(F)F)cccc12			> 1000 nM	
O[C@H](CN1CCN(Cc2cccc3ccccc23)CC1)c1cc(C(F)(F)F)nc2c(C(F)(F)F)cccc12			> 1000 nM	
COC[C@H](C)NC[C@@H](O)c1cc(C(F)(F)F)nc2c(C(F)(F)F)cccc12	57.2 nM	0.2	11.7 nM	
C[C@H]1[C@@H](O)O[C@@H]2O[C@@]3(C)CC[C@H]4[C@H](C)CC[C@@H]1[C@@]24OO3 [ARTENIMOL]				Ratio IC50 [4]: 0.9; IC50 [5]: 3 nM; IC50 [6]: 2.8 nM
C[C@H](CO)NC[C@@H](O)c1cc(C(F)(F)F)nc2c(C(F)(F)F)cccc12 (single isomer, unassigned)	10 nM	6.85	68.5 nM	
CC(C)(CO)NC[C@H](O)c1cc(C(F)(F)F)nc2c(C(F)(F)F)cccc12	31.5 nM	3.15	99.3 nM	
OC[C@@H](NC[C@@H](O)c1cc(C(F)(F)F)nc2c(C(F)(F)F)cccc12)c1ccccc1	9.8 nM	9.6	94.4 nM	
O[C@H](CNCCCN1CCN(CCCNC[C@@H](O)c2cc(C(F)(F)F)nc3c(C(F)(F)F)cccc23)CC1)c1cc(C(F)(F)F)nc2c(C(F)(F)F)cccc12	534 nM	> 1.9	> 1000 nM	
O[C@@H](CNCCCN1CCN(CCCNC[C@H](O)c2cc(C(F)(F)F)nc3c(C(F)(F)F)cccc23)CC1)c1cc(C(F)(F)F)nc2c(C(F)(F)F)cccc12	321 nM	> 3.1	> 1000 nM	

SMILES	IC50 [1]	Ratio IC50 [2]	IC50 [3]	other results
OCCN1CCN(C[C@@H](O)c2cc(C(F)(F)F)nc3c(C(F)(F)F)cccc23)CC1			> 1000 nM	
O[C@H](CN1CCN(C[C@@H](O)c2cc(C(F)(F)F)nc3c(C(F)(F)F)cccc23)CC1)c1cc(C(F)(F)F)nc2c(C(F)(F)F)cccc12	707 nM	1.35	953 nM	
OCCNC[C@H](O)c1cc(C(F)(F)F)nc2c(C(F)(F)F)cccc12			> 1000 nM	
OCCCC(CCCO)(CCCO)NC[C@@H](O)c1cc(C(F)(F)F)nc2c(C(F)(F)F)cccc12			> 1000 nM	
C[C@@H](CO)NC[C@@H](O)c1cc(C(F)(F)F)nc2c(C(F)(F)F)cccc12			166 nM	
O[C@@H](CN1CCN(C[C@H](O)c2cc(C(F)(F)F)nc3c(C(F)(F)F)cccc23)CC1)c1cc(C(F)(F)F)nc2c(C(F)(F)F)cccc12	> 1000 nM		> 1000 nM	
O[C@H](CN1CCN(C(c2ccccc2)c2ccccc2)CC1)c1cc(C(F)(F)F)nc2c(C(F)(F)F)cccc12	36.7 nM	1.1	39 nM	
O[C@H](CN1CCNCC1)c1cc(C(F)(F)F)nc2c(C(F)(F)F)cccc12			> 1000 nM	
C[C@@H](CO)NC[C@H](O)c1cc(C(F)(F)F)nc2c(C(F)(F)F)cccc12 (single isomer, unassigned)	51.7 nM	2.7	138 nM	
COc1cccc2c1C(=O)c1c(O)c3c(c(O)c1C2=O)C[C@@](O)(C(=O)CO)C[C@@H]3O[C@H]1C[C@H](N)[C@H](O)[C@H](C)O1 [DOXORUBICIN]				IC50 at 24 h [7]: 3.6 µM; IC50 at 72 h [8]: 20 nM
O[C@H](CNCCCCCCCCCCCCNC[C@@H](O)c1cc(C(F)(F)F)nc2c(C(F)(F)F)cccc12)c1cc(C(F)(F)F)nc2c(C(F)(F)F)cccc12	837 nM	0.3	249 nM	
O[C@@H](CN1CCN(Cc2cccc3ccccc23)CC1)c1cc(C(F)(F)F)nc2c(C(F)(F)F)cccc12			> 1000 nM	
C=C[C@H]1CN2CC[C@H]1C[C@H]2[C@H](O)c1ccnc2ccc(OC)cc12 [QUININE]				Ratio IC50 [4]: 0.2; IC50 [5]: 474 nM; IC50 [6]: 74.2 nM
NCCCCCCCCCCCCNC[C@@H](O)c1cc(C(F)(F)F)nc2c(C(F)(F)F)cccc12	43.8 nM	0.55	23.9 nM	
NCCNC[C@H](O)c1cc(C(F)(F)F)nc2c(C(F)(F)F)cccc12	> 1000 nM		> 1000 nM	
NCCNC[C@@H](O)c1cc(C(F)(F)F)nc2c(C(F)(F)F)cccc12	> 1000 nM		> 1000 nM	
O[C@@H](CNCCCCCCCCCCCCNC[C@H](O)c1cc(C(F)(F)F)nc2c(C(F)(F)F)cccc12)c1cc(C(F)(F)F)nc2c(C(F)(F)F)cccc12	> 1000 nM		> 1000 nM	
O[C@@H](CN1CCNCC1)c1cc(C(F)(F)F)nc2c(C(F)(F)F)cccc12			> 1000 nM	
O[C@H](CN1CCN(CCN2CCN(C[C@@H](O)c3cc(C(F)(F)F)nc4c(C(F)(F)F)cccc34)CC2)CC1)c1cc(C(F)(F)F)nc2c(C(F)(F)F)cccc12			726 nM	
NCCCCCCCCCCCCNC[C@H](O)c1cc(C(F)(F)F)nc2c(C(F)(F)F)cccc12	379 nM	0.5	176 nM	
O[C@@H](CNCCN1CCN(C[C@H](O)c2cc(C(F)(F)F)nc3c(C(F)(F)F)cccc23)CC1)c1cc(C(F)(F)F)nc2c(C(F)(F)F)cccc12	182 nM	2.5	453 nM	
